The test system of series [1] is zymosan-induced paw edema. Briefly: Effect on zymosan-induced paw edema. Type of series: in vivo, male Wistar rats. The conditions noted are these: rat, 100 mg/kg p.o., 1 hour before 1% zymosan; paw volume 4 hours after injection. As to the method: b) Effect on zymosan-induced paw edema
The experiment was carried out in the same manner as in the carrageenin-induced paw edema test except that 1% zymosan (Zymosan A®; Sigma Chemical Co.) was used in place of 1% carrageenin and the right hind paw volume was measured 4 hours after the injection of the edema-inducing substance instead of 3 hours. The swelling rate and the suppression rate were calculated by equation 1 and equation 2, respectively.

Series [2] has as its system Type III allergic reaction-induced pleurisy. Briefly: Effect on Type III allergic reaction-induced pleurisy. Type of series: in vivo, male Wistar rats. The conditions noted are these: po, 4.5 h, rat, 100 mg/kg p.o., four and a half hours after induction of pleurisy. As to the method: d) Effect on Type III allergic reaction-induced pleurisy
IgG was purified from rabbit anti-OA serum prepared in advance by the method of Koda et al. [Folia Pharmacol., Japon 66, 237, (1970)] in the following manner.
A saturated solution of ammonium sulfate (half volume of the serum) was added to the anti-OA serum, and the mixture was left for one hour at 4° C. The precipitate was taken by centrifugation (3,000 rpm, 30 min, 4° C.) and dissolved in phosphate buffered saline of Dulbecco. Then, ammonium sulfate fractionation was carried out three times in the same manner as above, whereby a purified IgG fraction was obtained.
Male Wistar rats weighing 225-250 g were pre-bred for several days and fasted overnight prior to the experiment The test compound (100 mg/kg) was orally administered to the animals, and after 30 minutes, IgG of rabbit anti-OA (0.2 ml, 5 mg protein/ml) was injected into the pleural cavity of the animals under anesthesia with ether. Thirty minutes after the injection of IgG, OA (albumin egg grade III; Sigma Chemical Co.) was intravenously injected into the animals as an inducer of pleurisy. After two hours, Evans Blue (25 mg/kg) was intravenously injected, and four and a half hours after the induction of pleurisy, the animals were killed by bleeding.
Then, an exudate in the pleural cavity was obtained, and the volume of the exudate was measured. The pleural cavity was rinsed with 5 ml of physiological saline and the rinsings were added to the exudate. The number of infiltrated cells in the mixture was counted and the volume of the dye in the mixture was determined by the absorption at 625 nm [Agent Actions., 25, 326 (1988)]. The suppression rates for the volume of the exudate, the number of infiltrated cells and the volume of the dye in the pleural cavity were calculated by the following equation 3. [formula]
S.V: the value obtained with the group administered with the test compound and in which pleurisy is induced
N.V: the value obtained with the group in which pleurisy is not induced
P.V: the value obtained with the group administered with no test compound and in which pleurisy is induced

The subject of series [3] is carrageenin-induced paw edema. The series can be described thus: Effect on carrageenin-induced paw edema. Conditions: po; rat, 100 mg/kg p.o., 1 hour before 1% carrageenin; paw volume 3 hours after injection; read-out: Suppression rate for paw swelling, (a) carrageenin-induced edema. Format: in vivo, male Wistar rats. The method, then:
a) Effect on carrageenin-induced paw edema
Male Wistar rats weighing 150 to 160 g (n=3-5) were used in the experiment. After the right hind paw volume was measured with the plethysmograph (TK-101; Unicom Co., Ltd.), the test compound (100 mg/kg) was orally administered. After one hour, 0.1 ml of 1 % carrageenin (λ-carrageenin; PICNIN-A®, Zushi Kagaku Co., Ltd.) was subcutaneously injected into the right hind paw footpad. Three hours after the injection of carrageenin, the right hind paw volume was measured and the swelling rate was determined by the following equation 1. [formula]
Vt: the right hind paw volume measured 3 hours after the injection of carrageenin
Vo: the right hind paw volume measured prior to the injection of carrageenin
The suppression rate was calculated by the following equation 2. [formula]
Swt: the swelling rate of the group administered with the test compound
Swc: the swelling rate of the control group administered with no test compound

For the next series, the system named is male dd-mice. The conditions noted are these: mouse, in vivo, 10080 min; for Acute toxicity (MLD, Minimum Lethal Dose) i.p.: ip; for Acute toxicity (MLD, Minimum Lethal Dose) p.o.: po. As to the method: The test compounds were orally or intraperitoneally administered to male dd-mice weighing 20 to 25 g. MLD (Minimum Lethal Dose) was determined by observing the mortality for seven days after the administration.

The test system of series [4] is arachidonic acid-induced paw edema. The series can be described thus: Arachidonic acid-induced paw edema. Conditions: rat, 100 mg/kg p.o., 1 hour before 0.5% arachidonic acid; paw volume one hour after injection. Format: in vivo, male Wistar rats. The method, then: c) Arachidonic acid-induced paw edema
The experiment was carried out in the same manner as in the carrageenin-induced paw edema test except that 0.5% arachidonic acid was used in place of 1% carrageenin and the right hind paw volume was measured one hour after the injection of the edema-inducing substance instead of 3 hours. The swelling rate and the suppression rate were calculated by equation 1 and equation 2, respectively.

Where [5] appears, read: Evans Blue 25 mg/kg i.v., absorption at 625 nm, read-out: Suppression rate, volume of dye in the exudate.
Setting [6] is: read-out: Suppression rate, volume of exudate.
Where [7] appears, read: read-out: Suppression rate, number of infiltrated cells in the exudate.

We go through 19 compounds from patent US5126341A, “Anti-inflammatory 1,8-naphthyridin-2-one derivatives” (Kyowa Hakko Kogyo Co., Ltd., priority 1990, dated 1992).

Read-outs that look alike come from different tables or passages of the source.

Turning to `CCCCNC(=O)c1c(O)c2cccnc2n(-c2ccccc2)c1=O` [Compound 1, N-(n-Butyl)-4-hydroxy-2-oxo-1-phenyl-1H-1,8-naphthyridine-3-carboxamide], the “Suppression rate for paw swelling, (b) zymosan-induced edema” value in series [1] worked out at 20.5%.
Regarding `CNC(=O)c1c(O)c2cccnc2n(-c2ccccc2)c1=O` [Compound 2, 4-Hydroxy-N-methyl-2-oxo-1-phenyl-1H-1,8-naphthyridine-3-carboxamide], the inhibition in vivo at 100 mg/kg in series [2] (setting [5]) was determined as 28.3%; in series [2] (setting [6]), 27.2%.
With `CN(C)NC(=O)c1c(O)c2cccnc2n(-c2ccccc2)c1=O` [Compound 6, N-Dimethylamino-4-hydroxy-2-oxo-1-phenyl-1H-1,8-naphthyridine-3-carboxamide], the inhibition in vivo at 100 mg/kg in series [3] worked out at 31.7%. For the same compound, in the series with male dd-mice, the “Acute toxicity (MLD, Minimum Lethal Dose) i.p.” value was > 100 mg/kg and the “Acute toxicity (MLD, Minimum Lethal Dose) p.o.” value is listed as > 300 mg/kg. Further, the “Suppression rate for paw swelling, (b) zymosan-induced edema” value in series [1] is on record as 27.3%.
Regarding `CN(C)CCNC(=O)c1c(O)c2cccnc2n(-c2ccccc2)c1=O` [Compound 7, N-(2-Dimethylaminoethyl)-4-hydroxy-2-oxo-1-phenyl-1H-1,8-naphthyridine-3-carboxamide], the inhibition in vivo at 100 mg/kg in series [3] turned out to be 23.2%. Moreover, in the series with male dd-mice, the “Acute toxicity (MLD, Minimum Lethal Dose) i.p.” value was > 100 mg/kg and the “Acute toxicity (MLD, Minimum Lethal Dose) p.o.” value was > 300 mg/kg.
Regarding `O=C(Nc1cccc(Cl)c1)c1c(O)c2cccnc2n(-c2ccccc2)c1=O` [Compound 8, N-(3-Chlorophenyl)-4-hydroxy-2-oxo-1-phenyl-1H-1,8-naphthyridine-3-carboxamide], the inhibition in vivo at 100 mg/kg in series [2] (setting [7]) stood at 21.7%.
`Cc1cccc(NC(=O)c2c(O)c3cccnc3n(-c3ccccc3)c2=O)c1` [Compound 9, 4-Hydroxy-N-(3-methylphenyl)-2-oxo-1-phenyl-1H-1,8-naphthyridine-3-carboxamide]: the inhibition in vivo at 100 mg/kg was 25.2% in series [3], 28.5% in series [2] (setting [7]) and 27.3% in series [2] (setting [6]). Besides, the “Acute toxicity (MLD, Minimum Lethal Dose) i.p.” value with male dd-mice was > 100 mg/kg. In addition, the “Acute toxicity (MLD, Minimum Lethal Dose) p.o.” value in the series with male dd-mice is listed as > 300 mg/kg.
For `O=C(Nc1cccc([N+](=O)[O-])c1)c1c(O)c2cccnc2n(-c2ccccc2)c1=O` [Compound 11, 4-Hydroxy-N-(3-nitrophenyl)-2-oxo-1-phenyl-1H-1,8-naphthyridine-3-carboxamide], in the series on male dd-mice, the “Acute toxicity (MLD, Minimum Lethal Dose) i.p.” value was > 100 mg/kg and the “Acute toxicity (MLD, Minimum Lethal Dose) p.o.” value is > 300 mg/kg. Further, the inhibition in vivo at 100 mg/kg in series [2] (setting [5]) amounted to 37.2%. Besides, the inhibition in vivo at 100 mg/kg in series [2] (setting [6]) came to 22.1%.
Consider `O=C(Nc1nccs1)c1c(O)c2cccnc2n(-c2ccccc2)c1=O` [Compound 12, 4-Hydroxy-2-oxo-1-phenyl-N-(2-thiazolyl)-1H-1,8-naphthyridine-3-carboxamide], for which the inhibition in vivo at 100 mg/kg in series [2] (setting [5]) is 24%.
With `O=C(Nc1nc2ccccc2s1)c1c(O)c2cccnc2n(-c2ccccc2)c1=O` [Compound 13, N-(2-Benzothiazolyl)-4-hydroxy-2-oxo-1-phenyl-1H-1,8-naphthyridine-3-carboxamide], the inhibition in vivo at 100 mg/kg worked out at 25.8% in series [2] (setting [5]) and 28.9% in series [2] (setting [6]).
As for `COc1ccc(NC(=O)c2c(O)c3cccnc3n(-c3ccccc3)c2=O)cc1` [Compound 16, 4-Hydroxy-N-(4-methoxyphenyl)-2-oxo-1-phenyl-1H-1,8-naphthyridine-3-carboxamide], the inhibition in vivo at 100 mg/kg in series [2] (setting [7]) worked out at 25.4%.
Take `Cc1ccc(NC(=O)c2c(O)c3cccnc3n(-c3ccccc3)c2=O)cc1` [Compound 17, 4-Hydroxy-N-(4-methylphenyl)-2-oxo-1-phenyl-1H-1,8-naphthyridine-3-carboxamide]: the figures for the inhibition in vivo at 100 mg/kg in series [2] (setting [7]) and in series [2] (setting [6]) were 21.5% and 22.4%, respectively.
The matching figures for `COc1cccc(NC(=O)c2c(O)c3cccnc3n(-c3ccccc3)c2=O)c1` [Compound 18, 4-Hydroxy-N-(3-methoxyphenyl)-2-oxo-1-phenyl-1H-1,8-naphthyridine-3-carboxamide]: 22.1% and 26.9%.
As to `COc1ccccc1NC(=O)c1c(O)c2cccnc2n(-c2ccccc2)c1=O` [Compound 19, 4-Hydroxy-N-(2-methoxyphenyl)-2-oxo-1-phenyl-1H-1,8-naphthyridine-3-carboxamide], the inhibition in vivo at 100 mg/kg in series [3] was 34.2%. In the series on male dd-mice, the “Acute toxicity (MLD, Minimum Lethal Dose) i.p.” value is > 100 mg/kg and the “Acute toxicity (MLD, Minimum Lethal Dose) p.o.” value is recorded as > 300 mg/kg. Besides, the inhibition in vivo at 100 mg/kg in series [2] (setting [7]) was 26.8%.
On to `O=C(NC1CCN(Cc2ccccc2)CC1)c1c(O)c2cccnc2n(-c2ccccc2)c1=O` [Compound 21, N-(1-Benzylpiperidin-4-yl)-4-hydroxy-2-oxo-1-phenyl-1H-1,8-naphthyridine-3-carboxamide], for which the inhibition in vivo at 100 mg/kg turned out to be 50.2% in series [2] (setting [5]), 22.1% in series [2] (setting [7]) and 32.4% in series [2] (setting [6]).
For `O=C(NC1=NCCS1)c1c(O)c2cccnc2n(-c2ccccc2)c1=O` [Compound 22, 4-Hydroxy-2-oxo-1-phenyl-N-(thiazolin-2-yl)-1H-1,8-naphthyridine-3-carboxamide], in series [4], the “Suppression rate for paw swelling, (c) arachidonic acid-induced edema” value stood at 33.4%. For the same compound, the “Acute toxicity (MLD, Minimum Lethal Dose) i.p.” value with male dd-mice is recorded as > 100 mg/kg. In the series on male dd-mice, the “Acute toxicity (MLD, Minimum Lethal Dose) p.o.” value is on record as > 300 mg/kg. For the same compound, the inhibition in vivo at 100 mg/kg turned out to be 51% in series [2] (setting [5]), 34.6% in series [2] (setting [7]) and 89.2% in series [2] (setting [6]).
Turning to `O=C(Nc1cnccn1)c1c(O)c2cccnc2n(-c2ccccc2)c1=O` [Compound 23, 4-Hydroxy-2-oxo-1-phenyl-N-(pyrazin-2-yl)-1H-1,8-naphthyridine-3-carboxamide], the inhibition in vivo at 100 mg/kg came out at 22.7% in series [3], 43.2% in series [2] (setting [5]), 26.7% in series [2] (setting [7]) and 24% in series [2] (setting [6]). Moreover, the “Acute toxicity (MLD, Minimum Lethal Dose) i.p.” value with male dd-mice is listed as > 100 mg/kg. For the same compound, the “Acute toxicity (MLD, Minimum Lethal Dose) p.o.” value in the series with male dd-mice was > 300 mg/kg. Further, the “Suppression rate for paw swelling, (b) zymosan-induced edema” value in series [1] was 22.2%.
As for `CCc1nnc(NC(=O)c2c(O)c3cccnc3n(-c3ccccc3)c2=O)s1` [Compound 24, 4-Hydroxy-2-oxo-1-phenyl-N-(5-ethyl-1,3,4-thiadiazol-2-yl)-1H-1,8-naphthyridine-3-carboxamide], the results for the inhibition in vivo at 100 mg/kg in series [2] (setting [5]) and in series [2] (setting [6]) were 32.1% and 29.7%, respectively.
Regarding `O=C(NN1CCOCC1)c1c(O)c2cccnc2n(-c2ccccc2)c1=O` [Compound 27, 4-Hydroxy-N-morpholino-2-oxo-1-phenyl-1H-1,8-naphthyridine-3-carboxamide], the inhibition in vivo at 100 mg/kg in series [2] (setting [5]) was 23.6%.
In the case of `O=C(NCc1cccnc1)c1c(O)c2cccnc2n(-c2ccccc2)c1=O` [Compound 29, 4-Hydroxy-2-oxo-1-phenyl-N-(3-pyridylmethyl)-1H-1,8-naphthyridine-3-carboxamide], the “Suppression rate for paw swelling, (c) arachidonic acid-induced edema” value in series [4] is given as 33.3%. Moreover, in the series with male dd-mice, the “Acute toxicity (MLD, Minimum Lethal Dose) i.p.” value is > 100 mg/kg and the “Acute toxicity (MLD, Minimum Lethal Dose) p.o.” value was > 300 mg/kg.
